Here are results for one molecule from patent US20260207722A1, “COMBINATION FOR TREATMENT OF AUTOIMMUNE DISEASES” (Bonsai Biotherapeutics AB, priority 2023, published 2026).

The structures appear in SMILES notation.

This assay relates to experimental autoimmune myasthenia gravis (EAMG). Put plainly: EAMG clinical score, rats treated with TOL2 and/or diclofenac (Example 2). The conditions noted are these: treatment 40 days after EAMG induction; diclofenac 10 mg/kg ip; TOL2 500 μg iv alone, 250 μg iv in the combination; vs PBS-treated controls; FIG. 3A. The format is in vivo, rat.

Consider `O=C(O)Cc1ccccc1Nc1c(Cl)cccc1Cl` [diclofenac], for which the EAMG score result is recorded as “did not show any improvement”.
